These results are taken from PMC9820167, “Design and Synthesis of Conformationally Flexible Scaffold as Bitopic Ligands for Potent D3-Selective Antagonists” (International Journal of Molecular Sciences, 2022).

One experiment deals with Opioid MOR (Homo sapiens, UniProt P35372). The experiment in a line: PDSP binding screen. To be noted: for inhibition at 10 µM: read-out: Ki (nM) or % inhibition at 10 µM: MOR.
A further experiment addresses T1, Adrenergic alpha2C (Homo sapiens, UniProt P18825).
T1 sequence (P18825 1-462): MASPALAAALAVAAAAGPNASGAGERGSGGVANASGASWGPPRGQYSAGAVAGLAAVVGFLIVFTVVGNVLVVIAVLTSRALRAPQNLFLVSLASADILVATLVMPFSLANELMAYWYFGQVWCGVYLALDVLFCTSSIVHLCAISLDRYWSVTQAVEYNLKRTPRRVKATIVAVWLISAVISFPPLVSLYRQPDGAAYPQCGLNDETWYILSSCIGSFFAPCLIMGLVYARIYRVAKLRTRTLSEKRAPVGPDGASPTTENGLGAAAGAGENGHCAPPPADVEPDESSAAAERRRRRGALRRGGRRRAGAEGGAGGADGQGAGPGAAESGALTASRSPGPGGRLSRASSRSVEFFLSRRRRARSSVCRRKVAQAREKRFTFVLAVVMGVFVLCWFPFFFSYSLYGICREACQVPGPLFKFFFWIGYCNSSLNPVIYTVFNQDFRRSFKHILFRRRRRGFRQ
The experiment in a line: PDSP binding screen.

The target of a further experiment is T2, Serotonin 5-HT1A (Homo sapiens, UniProt P08908).
T2 sequence (P08908 1-422): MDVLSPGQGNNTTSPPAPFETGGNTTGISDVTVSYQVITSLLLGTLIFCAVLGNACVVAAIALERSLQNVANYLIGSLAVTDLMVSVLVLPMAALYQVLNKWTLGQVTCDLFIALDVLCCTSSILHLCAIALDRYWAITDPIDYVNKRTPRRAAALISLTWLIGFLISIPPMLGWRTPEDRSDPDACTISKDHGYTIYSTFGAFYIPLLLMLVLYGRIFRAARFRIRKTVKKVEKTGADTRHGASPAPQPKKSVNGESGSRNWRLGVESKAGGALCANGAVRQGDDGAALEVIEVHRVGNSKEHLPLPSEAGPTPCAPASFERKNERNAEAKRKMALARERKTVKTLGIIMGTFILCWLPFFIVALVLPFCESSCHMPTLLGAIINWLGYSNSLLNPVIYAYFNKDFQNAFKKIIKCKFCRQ
Kind of experiment: PDSP binding screen.

The target in another experiment is Histamine H2 (Homo sapiens, UniProt P25021). The experiment in a line: PDSP binding screen. The conditions noted are these: for inhibition at 10 µM: read-out: Ki (nM) or % inhibition at 10 µM: H2.
Experiment [1] concerns the target Norepinephrine transporter (NET) (Homo sapiens, UniProt P23975). The experiment in a line: PDSP binding screen.
A further experiment concerns the target T3, human D2 receptors (Homo sapiens, UniProt P14416).
T3 construct: expressed in transfected cells; host or cells: HEK293
Kind of experiment: Radioligand binding assay with [125I]IABN, D2 receptor. The procedure:
Two different assays were used to evaluate the properties of the analogs described above. The receptor binding affinity was measured by radioligand binding assays using [^125I]IABN with D2 or D3 receptors highly expressed HEK293 cells. The functional activity of the analogs was determined using a β-arrestin recruitment assay. […] The results of the antagonist mode assay are reported as IC50 values.
Ki values for D2 and D3 receptors were measured using [^125I]IABN in human D2 and D3 receptors expressed in HEK cells, respectively. A filtration binding assay was used to characterize membrane-associated receptor binding properties. The details for the procedures were described in the literature.

The target of the next experiment is Serotonin 5-HT2B (Homo sapiens, UniProt P41595). Kind of experiment: PDSP binding screen.
In the next experiment the target is Dopamine D5 (Homo sapiens, UniProt P21918). Kind of experiment: PDSP binding screen. To be noted: for inhibition at 10 µM: read-out: Ki (nM) or % inhibition at 10 µM: D5.
For the next experiment, the target named is Serotonin 5-HT7A (Homo sapiens, UniProt P34969). Kind of experiment: PDSP binding screen. The conditions noted are these: for inhibition at 10 µM: read-out: Ki (nM) or % inhibition at 10 µM: 5-HT7A.
The target of the next experiment is Adrenergic beta1 (Homo sapiens, UniProt P08588). Kind of experiment: PDSP binding screen. To be noted: for inhibition at 10 µM: read-out: Ki (nM) or % inhibition at 10 µM: beta1.
For the next experiment, the target named is Adrenergic beta2 (Homo sapiens, UniProt P07550). Kind of experiment: PDSP binding screen. The conditions noted are these: for inhibition at 10 µM: read-out: Ki (nM) or % inhibition at 10 µM: beta2.
The target of a further experiment is T4, Adrenergic alpha1D (Homo sapiens, UniProt P25100).
T4 sequence (P25100 1-572): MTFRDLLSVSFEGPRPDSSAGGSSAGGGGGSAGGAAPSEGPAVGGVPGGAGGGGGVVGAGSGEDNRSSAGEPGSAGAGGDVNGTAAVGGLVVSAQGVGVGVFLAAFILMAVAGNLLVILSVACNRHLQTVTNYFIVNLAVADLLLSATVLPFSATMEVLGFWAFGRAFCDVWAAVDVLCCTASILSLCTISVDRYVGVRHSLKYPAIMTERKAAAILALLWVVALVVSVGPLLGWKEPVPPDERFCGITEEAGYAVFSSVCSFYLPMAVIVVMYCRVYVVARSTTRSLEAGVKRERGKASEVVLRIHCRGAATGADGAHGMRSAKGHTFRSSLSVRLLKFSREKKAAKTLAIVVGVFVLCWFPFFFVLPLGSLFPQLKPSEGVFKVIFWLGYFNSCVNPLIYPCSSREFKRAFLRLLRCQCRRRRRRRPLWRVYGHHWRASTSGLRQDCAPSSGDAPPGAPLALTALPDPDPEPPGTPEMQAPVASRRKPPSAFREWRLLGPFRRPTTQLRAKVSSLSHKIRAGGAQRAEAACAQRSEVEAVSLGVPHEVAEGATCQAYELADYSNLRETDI
Kind of experiment: PDSP binding screen. To be noted: for inhibition at 10 µM: read-out: Ki (nM) or % inhibition at 10 µM: alpha1D.

In another experiment the target is Opioid KOR (Homo sapiens, UniProt P41145). Kind of experiment: PDSP binding screen. To be noted: for inhibition at 10 µM: read-out: Ki (nM) or % inhibition at 10 µM: KOR.
The target in the next experiment is Serotonin 5-HT2A (Homo sapiens, UniProt P28223). Kind of experiment: PDSP binding screen.
Where [2] appears, read: [125I]IABN, D2 receptors expressed in HEK cells, mean ± SEM, three experiments, HCl salts, read-out: Ki ± SEM (nM) D2.

Each structure is given as a SMILES string. Like-named read-outs stand apart in the source and are kept apart here.

Dopamine D5, sequence (P21918 whole entry): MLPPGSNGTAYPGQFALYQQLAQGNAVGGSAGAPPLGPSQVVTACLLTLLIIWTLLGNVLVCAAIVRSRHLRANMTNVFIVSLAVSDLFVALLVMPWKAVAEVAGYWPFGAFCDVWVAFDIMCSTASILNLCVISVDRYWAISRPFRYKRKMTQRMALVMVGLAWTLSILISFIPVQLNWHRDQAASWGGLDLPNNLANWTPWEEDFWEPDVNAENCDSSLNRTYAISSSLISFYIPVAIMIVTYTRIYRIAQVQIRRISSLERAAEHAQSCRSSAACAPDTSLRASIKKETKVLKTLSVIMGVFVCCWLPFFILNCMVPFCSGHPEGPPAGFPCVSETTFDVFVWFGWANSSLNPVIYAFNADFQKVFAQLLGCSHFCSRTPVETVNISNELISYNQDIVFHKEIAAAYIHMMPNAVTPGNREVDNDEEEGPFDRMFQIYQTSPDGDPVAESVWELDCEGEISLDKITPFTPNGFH
Adrenergic beta1, sequence (P08588 whole entry): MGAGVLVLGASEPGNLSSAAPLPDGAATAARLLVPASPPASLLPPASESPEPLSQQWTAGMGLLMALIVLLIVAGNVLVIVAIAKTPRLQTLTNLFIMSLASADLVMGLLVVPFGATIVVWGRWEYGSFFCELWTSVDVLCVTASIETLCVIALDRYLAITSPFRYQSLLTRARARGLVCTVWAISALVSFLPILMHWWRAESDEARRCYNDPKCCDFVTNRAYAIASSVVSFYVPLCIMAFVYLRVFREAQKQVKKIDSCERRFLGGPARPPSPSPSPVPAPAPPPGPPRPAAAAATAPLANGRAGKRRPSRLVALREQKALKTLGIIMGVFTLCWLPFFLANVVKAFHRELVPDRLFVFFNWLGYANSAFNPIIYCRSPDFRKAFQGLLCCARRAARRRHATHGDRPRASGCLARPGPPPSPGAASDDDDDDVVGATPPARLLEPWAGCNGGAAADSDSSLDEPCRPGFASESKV
Adrenergic beta2, sequence (P07550 whole entry): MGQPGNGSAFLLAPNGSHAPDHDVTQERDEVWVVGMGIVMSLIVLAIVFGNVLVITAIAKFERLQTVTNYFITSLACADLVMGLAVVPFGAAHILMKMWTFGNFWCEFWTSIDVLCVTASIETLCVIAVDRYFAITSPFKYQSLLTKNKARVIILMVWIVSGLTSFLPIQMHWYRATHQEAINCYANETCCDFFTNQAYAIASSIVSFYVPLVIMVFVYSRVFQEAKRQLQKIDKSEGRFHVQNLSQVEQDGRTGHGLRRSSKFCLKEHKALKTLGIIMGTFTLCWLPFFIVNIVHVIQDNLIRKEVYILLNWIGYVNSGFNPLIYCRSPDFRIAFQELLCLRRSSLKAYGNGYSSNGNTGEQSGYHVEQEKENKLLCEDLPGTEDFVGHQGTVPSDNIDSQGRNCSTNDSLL
Norepinephrine transporter (NET), sequence (P23975 whole entry): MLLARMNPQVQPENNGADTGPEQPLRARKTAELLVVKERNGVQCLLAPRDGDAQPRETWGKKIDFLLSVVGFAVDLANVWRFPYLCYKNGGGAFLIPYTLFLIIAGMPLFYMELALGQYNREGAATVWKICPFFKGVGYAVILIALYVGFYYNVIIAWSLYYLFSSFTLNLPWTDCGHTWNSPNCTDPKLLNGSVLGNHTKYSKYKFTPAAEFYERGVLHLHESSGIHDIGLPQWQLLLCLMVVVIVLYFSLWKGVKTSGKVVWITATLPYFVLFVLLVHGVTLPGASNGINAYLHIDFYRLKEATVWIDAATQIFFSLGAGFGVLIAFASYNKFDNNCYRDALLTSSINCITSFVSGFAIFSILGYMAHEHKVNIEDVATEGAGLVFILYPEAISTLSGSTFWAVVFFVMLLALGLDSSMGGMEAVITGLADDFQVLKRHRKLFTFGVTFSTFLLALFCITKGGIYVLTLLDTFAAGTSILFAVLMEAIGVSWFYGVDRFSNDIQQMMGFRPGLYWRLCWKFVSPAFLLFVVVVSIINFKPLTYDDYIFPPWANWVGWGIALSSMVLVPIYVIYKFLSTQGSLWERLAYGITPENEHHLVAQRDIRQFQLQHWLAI
Serotonin 5-HT2B, sequence (P41595 whole entry): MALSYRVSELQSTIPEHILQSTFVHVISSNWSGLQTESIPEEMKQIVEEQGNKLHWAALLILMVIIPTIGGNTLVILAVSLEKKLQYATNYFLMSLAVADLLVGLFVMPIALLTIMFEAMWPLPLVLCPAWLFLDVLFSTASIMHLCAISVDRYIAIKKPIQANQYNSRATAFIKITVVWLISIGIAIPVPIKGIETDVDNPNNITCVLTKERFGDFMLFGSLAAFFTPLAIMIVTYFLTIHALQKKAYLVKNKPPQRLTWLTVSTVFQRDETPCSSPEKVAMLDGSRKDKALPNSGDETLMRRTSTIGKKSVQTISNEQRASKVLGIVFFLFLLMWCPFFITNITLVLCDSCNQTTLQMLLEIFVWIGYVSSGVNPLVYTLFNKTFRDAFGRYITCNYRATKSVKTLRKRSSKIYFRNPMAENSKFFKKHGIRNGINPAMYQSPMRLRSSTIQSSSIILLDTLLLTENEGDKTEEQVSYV
Histamine H2, sequence (P25021 whole entry): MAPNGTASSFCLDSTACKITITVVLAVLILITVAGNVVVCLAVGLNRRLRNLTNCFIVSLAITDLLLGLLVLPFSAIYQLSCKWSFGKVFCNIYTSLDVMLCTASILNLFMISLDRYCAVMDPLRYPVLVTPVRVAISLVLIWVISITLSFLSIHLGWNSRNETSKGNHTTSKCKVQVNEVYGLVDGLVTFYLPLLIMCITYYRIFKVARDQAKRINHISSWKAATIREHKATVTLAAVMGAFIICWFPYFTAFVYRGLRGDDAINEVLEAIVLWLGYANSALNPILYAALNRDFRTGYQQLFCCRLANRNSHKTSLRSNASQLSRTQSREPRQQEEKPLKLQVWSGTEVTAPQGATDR
Serotonin 5-HT2A, sequence (P28223 whole entry): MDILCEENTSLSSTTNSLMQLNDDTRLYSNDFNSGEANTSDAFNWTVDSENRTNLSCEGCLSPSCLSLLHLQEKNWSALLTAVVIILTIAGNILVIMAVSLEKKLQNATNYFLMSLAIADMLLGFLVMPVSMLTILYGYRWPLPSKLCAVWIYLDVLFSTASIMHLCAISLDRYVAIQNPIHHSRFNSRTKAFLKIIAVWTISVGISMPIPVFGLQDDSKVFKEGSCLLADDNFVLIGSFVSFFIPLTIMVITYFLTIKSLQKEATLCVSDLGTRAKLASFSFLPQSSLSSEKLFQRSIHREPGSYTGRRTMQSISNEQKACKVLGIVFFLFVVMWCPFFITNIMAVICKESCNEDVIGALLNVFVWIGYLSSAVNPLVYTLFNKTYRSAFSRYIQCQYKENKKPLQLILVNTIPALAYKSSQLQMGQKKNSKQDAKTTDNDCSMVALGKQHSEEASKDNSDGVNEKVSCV
Opioid MOR, sequence (P35372 whole entry): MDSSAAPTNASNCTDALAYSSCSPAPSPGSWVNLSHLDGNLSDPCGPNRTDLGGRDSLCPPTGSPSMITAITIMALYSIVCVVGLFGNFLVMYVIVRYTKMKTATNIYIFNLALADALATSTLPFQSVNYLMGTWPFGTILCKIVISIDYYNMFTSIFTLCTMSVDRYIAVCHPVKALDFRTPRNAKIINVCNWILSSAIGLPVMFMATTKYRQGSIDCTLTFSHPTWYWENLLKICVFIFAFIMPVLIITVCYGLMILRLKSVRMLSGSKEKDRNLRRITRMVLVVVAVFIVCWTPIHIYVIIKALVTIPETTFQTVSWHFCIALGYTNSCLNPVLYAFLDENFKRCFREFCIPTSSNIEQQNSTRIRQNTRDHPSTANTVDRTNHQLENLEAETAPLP
Serotonin 5-HT7A, sequence (P34969 1-445 isoform P34969-2): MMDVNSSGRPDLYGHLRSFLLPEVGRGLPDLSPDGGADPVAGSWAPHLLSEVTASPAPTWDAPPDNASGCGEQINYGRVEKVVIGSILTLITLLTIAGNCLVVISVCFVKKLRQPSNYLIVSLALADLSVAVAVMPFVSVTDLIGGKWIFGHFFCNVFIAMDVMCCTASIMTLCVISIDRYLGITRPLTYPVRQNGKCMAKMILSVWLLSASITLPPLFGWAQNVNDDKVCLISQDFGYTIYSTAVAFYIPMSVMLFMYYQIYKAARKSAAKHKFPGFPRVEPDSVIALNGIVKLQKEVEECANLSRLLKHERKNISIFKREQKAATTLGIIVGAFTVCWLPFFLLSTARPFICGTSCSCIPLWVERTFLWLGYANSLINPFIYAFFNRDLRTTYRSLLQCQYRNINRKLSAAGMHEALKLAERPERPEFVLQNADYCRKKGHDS
Opioid KOR, sequence (P41145 whole entry): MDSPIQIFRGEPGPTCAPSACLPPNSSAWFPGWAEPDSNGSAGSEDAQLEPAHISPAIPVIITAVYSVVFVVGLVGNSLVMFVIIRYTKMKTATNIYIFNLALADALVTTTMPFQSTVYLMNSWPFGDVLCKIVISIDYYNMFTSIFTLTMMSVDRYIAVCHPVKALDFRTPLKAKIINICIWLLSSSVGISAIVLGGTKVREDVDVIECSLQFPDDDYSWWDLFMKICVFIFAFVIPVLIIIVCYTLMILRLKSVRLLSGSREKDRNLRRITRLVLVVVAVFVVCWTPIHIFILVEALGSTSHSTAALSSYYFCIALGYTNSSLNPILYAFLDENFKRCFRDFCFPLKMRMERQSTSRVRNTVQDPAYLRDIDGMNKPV
T3 sequence (P14416 whole entry): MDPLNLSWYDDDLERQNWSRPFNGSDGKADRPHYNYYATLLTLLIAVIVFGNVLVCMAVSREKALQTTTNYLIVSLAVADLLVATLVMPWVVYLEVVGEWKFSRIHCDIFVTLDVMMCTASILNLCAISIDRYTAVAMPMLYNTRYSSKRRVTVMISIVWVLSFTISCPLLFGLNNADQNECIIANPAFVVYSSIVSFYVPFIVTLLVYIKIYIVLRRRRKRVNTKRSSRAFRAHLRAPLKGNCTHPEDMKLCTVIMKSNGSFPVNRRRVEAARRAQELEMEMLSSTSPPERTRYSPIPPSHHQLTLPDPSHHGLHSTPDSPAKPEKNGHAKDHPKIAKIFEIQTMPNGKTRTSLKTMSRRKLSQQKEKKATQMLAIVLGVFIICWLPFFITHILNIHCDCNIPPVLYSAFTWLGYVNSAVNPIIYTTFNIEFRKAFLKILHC

What is called Ki is a measure of affinity in units of concentration, obtained from inhibition or displacement. As a reminder, the inhibition is how much of the control response was suppressed. Regarding `CCN(CCCNC(=O)c1cc2ccccc2n1C)CCNC(=O)c1cc(Br)cc(OC)c1OC` [21j, N-(3-((2-(5-Bromo-2,3-dimethoxybenzamido)ethyl)(ethyl)amino)propyl)-1-methyl-1H-indole-2-carboxamide], the Ki on Opioid MOR is 2770 nM; at Adrenergic alpha2C, 183 nM; at Serotonin 5-HT1A it was 961 nM; at Histamine H2, 3680 nM; in experiment [1], 1100 nM; at human D2 receptors (setting [2]), 192 ± 22 nM. For the same compound, the Ki at Serotonin 5-HT2B was 183 nM; at Adrenergic beta2, greater than 10000 nM; on Serotonin 5-HT2A, 3140 nM. For the same compound, the inhibition at 10 µM at Dopamine D5, at Serotonin 5-HT7A, on Adrenergic beta1, on Adrenergic alpha1D and at Opioid KOR was less than 50% in each case.

For the compound `CCCN(CCCNC(=O)c1ccc(-c2cccs2)cc1)CCNC(=O)c1cc(Br)cc(OC)c1OC` [20a, 5-Bromo-2,3-dimethoxy-N-(2-(propyl(3-(4-(thiophen-2-yl)benzamido)propyl)amino)ethyl)benzamide], the Ki amounted to 3020 nM on Opioid MOR; 113 nM on Adrenergic alpha2C; 194 nM at Serotonin 5-HT1A; 1650 nM at Histamine H2; 3510 nM in [1]; 259 ± 23 nM on human D2 receptors (setting [2]). The Ki at Serotonin 5-HT2B was determined as 170 nM; on Adrenergic beta1, 3710 nM; on Adrenergic beta2, 5830 nM; on Adrenergic alpha1D it was 2420 nM; on Opioid KOR, 116 nM; on Serotonin 5-HT2A, 617 nM. Further, the inhibition at 10 µM on Dopamine D5 and at Serotonin 5-HT7A was less than 50% each time.

On to `CCN(CCCNC(=O)c1ccc(-c2ccncc2)cc1)CCNC(=O)c1cc(Br)cc(OC)c1OC` [21c, 5-Bromo-N-(2-(ethyl(3-(4-(pyridin-4-yl)benzamido)propyl)amino)ethyl)-2,3-dimethoxybenzamide], for which the inhibition at 10 µM (at Opioid MOR; on Histamine H2; in experiment [1] (read-out: Ki (nM) or % inhibition at 10 µM: Norepinephrine transporter (NET)); on Serotonin 5-HT7A; on Adrenergic beta1; on Adrenergic beta2) was less than 50% throughout. Moreover, the inhibition at 10 µM on Adrenergic alpha1D is less than 50%. In addition, the inhibition constant Ki on Adrenergic alpha2C is 524 nM; on Serotonin 5-HT1A, 509 nM; at human D2 receptors (setting [2]), 107 ± 5 nM; at Serotonin 5-HT2B, 157 nM; on Dopamine D5 it was greater than 10000 nM; at Opioid KOR it was 642 nM. At Serotonin 5-HT2A, this compound yielded a Ki of 727 nM.

As to `CCN(CCCNC(=O)c1ccsc1)CCNC(=O)c1cc(Br)cc(OC)c1OC` [21i, N-(3-((2-(5-Bromo-2,3-dimethoxybenzamido)ethyl)(ethyl)amino)propyl)thiophen-e-3-carboxamide], the inhibition at 10 µM on Opioid MOR, at Histamine H2, at Dopamine D5, at Serotonin 5-HT7A, on Adrenergic beta1 and on Adrenergic beta2 was less than 50% in each case. The inhibition at 10 µM on Adrenergic alpha1D and on Opioid KOR was less than 50% throughout. In addition, the Ki at Adrenergic alpha2C is 1290 nM; at Serotonin 5-HT1A, 245 nM; in [1] it was 3200 nM; at human D2 receptors (setting [2]) it was 304 ± 7 nM; at Serotonin 5-HT2B, 269 nM; on Serotonin 5-HT2A, 1370 nM.

In the case of `CCN(CCCNC(=O)c1ccc(-c2cccs2)cc1)CCNC(=O)c1cc(Br)cc(OC)c1OC` [9a, 5-Bromo-N-(2-(ethyl(3-(4-(thiophen-2-yl)benzamido)propyl)amino)ethyl)-2,3-dimethoxybenzamide], the inhibitory constant (Ki) at Opioid MOR is 1560 nM; on Adrenergic alpha2C it was 313 nM; at Serotonin 5-HT1A it was 1740 nM; on Histamine H2, 2610 nM; in [1], 772 nM; on human D2 receptors, 169 ± 4 nM. In addition, the Ki stood at 187 nM on Serotonin 5-HT2B; 1470 nM on Dopamine D5; 5900 nM on Adrenergic beta1; 669 nM on Adrenergic beta2; 2560 nM on Adrenergic alpha1D; 107 nM at Opioid KOR. In addition, on Serotonin 5-HT2A, the inhibition constant (Ki) amounted to 222 nM. Further, at Serotonin 5-HT7A, the inhibition at 10 µM is less than 50%.

`CCN(CCCNC(=O)c1ccc(-c2ccsc2)cc1)CCNC(=O)c1cc(Br)cc(OC)c1OC` [21g, 5-Bromo-N-(2-(ethyl(3-(4-(thiophen-3-yl)benzamido)propyl)amino)ethyl)-2,3-dimethoxybenzamide]: the Ki at Opioid MOR came to 2160 nM; at Adrenergic alpha2C it was 78 nM; at Serotonin 5-HT1A, 3310 nM; at Histamine H2 it was 2480 nM; in [1], 1940 nM; on human D2 receptors (setting [2]), 312 ± 18 nM. Moreover, the Ki at Serotonin 5-HT2B was 189 nM; at Dopamine D5, 8690 nM; on Serotonin 5-HT7A it was 2250 nM; on Adrenergic beta1, 1890 nM; at Adrenergic beta2, 616 nM; at Adrenergic alpha1D it was 1410 nM. The inhibitory constant (Ki) on Opioid KOR is 170 nM; on Serotonin 5-HT2A, 276 nM.

Consider `CCN(CCCNC(=O)c1ccc2ccccc2c1)CCNC(=O)c1cc(Br)cc(OC)c1OC` [21a, N-(3-((2-(5-Bromo-2,3-dimethoxybenzamido)ethyl)(ethyl)amino)propyl)-2-naphthamide], for which the Ki at Opioid MOR came to 1080 nM; at Adrenergic alpha2C, 195 nM; on Serotonin 5-HT1A, 971 nM; on Histamine H2, 2790 nM; in experiment [1], 391 nM; on human D2 receptors (setting [2]), 169 ± 12 nM. In addition, the Ki at Serotonin 5-HT2B was 118 nM; on Serotonin 5-HT2A, 1240 nM. Further, the inhibition at 10 µM at Dopamine D5, on Serotonin 5-HT7A, at Adrenergic beta1, on Adrenergic beta2, at Adrenergic alpha1D and on Opioid KOR was less than 50% each time.
